Assay results: ChEMBL document CHEMBL1201862, “PubChem BioAssay data set” (2004)
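Interpolation was linear, between the two tested concentrations surrounding the appropriate level; five concentrations were tested over 48 hours in 96-well plates. GI50 marks 50% less growth.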 Active and inactive are the calls of the source. Rule as the data show it: active = GI50 up to about 1.1 µM and inactive = higher.

Columns and labels:
Assay in all cases: inhibition of tumour cell growth, NCI panel, 48 h
MDA-MB-435 = test system: MDA-MB-435
BT-549 = test system: BT-549
NCI-H23 = test system: NCI-H23
RPMI-8226 = test system: RPMI-8226
MCF7 = test system: MCF7
Malme-3M = test system: Malme-3M
OVCAR-3 = test system: OVCAR-3
SF-295 = test system: SF-295
PC-3 = test system: PC-3
TK-10 = test system: TK-10
NCI-H522 = test system: NCI-H522
A549 = test system: A549
KM12 = test system: KM12
LOX IMVI = test system: LOX IMVI
SK-MEL-5 = test system: SK-MEL-5
UACC-257 = test system: UACC-257
HOP-62 = test system: HOP-62
ACHN = test system: ACHN
NCI-H460 = test system: NCI-H460
EKVX = test system: EKVX
SF-539 = test system: SF-539
CAKI-1 = test system: CAKI-1
T47D = test system: T47D
SK-MEL-2 = test system: SK-MEL-2
OVCAR-5 = test system: OVCAR-5
U-251 = test system: U-251
Hs-578T = test system: Hs-578T
OVCAR-8 = test system: OVCAR-8
786-0 = test system: 786-0
SW-620 = test system: SW-620
HOP-92 = test system: HOP-92
DU-145 = test system: DU-145
UACC-62 = test system: UACC-62
COLO 205 = test system: COLO 205
HCC 2998 = test system: HCC 2998
MDA-MB-231 = test system: MDA-MB-231
NCI-H226 = test system: NCI-H226
MDA-N = test system: MDA-N
SF-268 = test system: SF-268
CCRF-CEM = test system: CCRF-CEM
MOLT-4 = test system: MOLT-4
HCT-116 = test system: HCT-116
SNB-19 = test system: SNB-19
A498 = test system: A498
HCT-15 = test system: HCT-15
IGROV-1 = test system: IGROV-1
K562 = test system: K562
HL-60 = test system: HL-60
UO-31 = test system: UO-31
NCI/ADR-RES = test system: NCI/ADR-RES
M14 = test system: M14
SK-MEL-28 = test system: SK-MEL-28
RXF 393 = test system: RXF 393
SNB-75 = test system: SNB-75
OVCAR-4 = test system: OVCAR-4
HT-29 = test system: HT-29
SK-OV-3 = test system: SK-OV-3
SN12C = test system: SN12C
SR = test system: SR

**Q.** Which GI50 (MDA-MB-435) does the source give for `N#CSc1ccc(S(N)(=O)=O)cc1` here?
**A.** 33.3 µM (inactive)

**Q.** What about the GI50 (BT-549) of the same molecule?
**A.** > 100 µM (inactive)

**Q.** And the GI50 (NCI-H23)?
**A.** > 100 µM (inactive)

**Q.** What about the GI50 (RPMI-8226) of the same molecule?
**A.** 26.5 µM (inactive)

**Q.** And the GI50 (MCF7)?
**A.** 35.6 µM (inactive)

**Q.** What about the GI50 (Malme-3M) of the same molecule?
**A.** 83.6 µM (inactive)

**Q.** And the GI50 (OVCAR-3)?
**A.** 52.2 µM (inactive)

**Q.** And the GI50 (SF-295)?
**A.** > 100 µM (inactive)

**Q.** What about the GI50 (PC-3) of the same molecule?
**A.** 48 µM (inactive)

**Q.** And the GI50 (TK-10)?
**A.** 75.5 µM (inactive)

**Q.** And the GI50 (NCI-H522)?
**A.** 10.7 µM (inactive)

**Q.** What about the GI50 (A549) of the same molecule?
**A.** > 100 µM (inactive)

**Q.** And the GI50 (KM12)?
**A.** > 100 µM (inactive)

**Q.** And the GI50 (LOX IMVI)?
**A.** 31.3 µM (inactive)

**Q.** And the GI50 (SK-MEL-5)?
**A.** 75.2 µM (inactive)

**Q.** What about the GI50 (UACC-257) of the same molecule?
**A.** > 100 µM (inactive)

**Q.** What about the GI50 (HOP-62) of the same molecule?
**A.** > 100 µM (inactive)

**Q.** What about the GI50 (ACHN) of the same molecule?
**A.** 29.6 µM (inactive)

**Q.** What about the GI50 (NCI-H460) of the same molecule?
**A.** > 100 µM (inactive)

**Q.** And the GI50 (EKVX)?
**A.** > 100 µM (inactive)

**Q.** And the GI50 (SF-539)?
**A.** 25.1 µM (inactive)

**Q.** And the GI50 (CAKI-1)?
**A.** 56.5 µM (inactive)

**Q.** And the GI50 (T47D)?
**A.** 31.8 µM (inactive)

**Q.** What about the GI50 (SK-MEL-2) of the same molecule?
**A.** 46.5 µM (inactive)

**Q.** And the GI50 (OVCAR-5)?
**A.** 59.8 µM (inactive)

**Q.** And the GI50 (U-251)?
**A.** 17.4 µM (inactive)

**Q.** What about the GI50 (Hs-578T) of the same molecule?
**A.** > 100 µM (inactive)

**Q.** What about the GI50 (OVCAR-8) of the same molecule?
**A.** 44.8 µM (inactive)

**Q.** What about the GI50 (786-0) of the same molecule?
**A.** 26.1 µM (inactive)

**Q.** And the GI50 (SW-620)?
**A.** 23.9 µM (inactive)

**Q.** What about the GI50 (HOP-92) of the same molecule?
**A.** > 100 µM (inactive)

**Q.** What about the GI50 (DU-145) of the same molecule?
**A.** > 100 µM (inactive)

**Q.** And the GI50 (UACC-62)?
**A.** 70 µM (inactive)

**Q.** And the GI50 (COLO 205)?
**A.** 71.1 µM (inactive)

**Q.** What about the GI50 (HCC 2998) of the same molecule?
**A.** > 100 µM (inactive)

**Q.** What about the GI50 (MDA-MB-231) of the same molecule?
**A.** 44.6 µM (inactive)

**Q.** And the GI50 (NCI-H226)?
**A.** > 100 µM (inactive)

**Q.** What about the GI50 (MDA-N) of the same molecule?
**A.** 33.2 µM (inactive)

**Q.** What about the GI50 (SF-268) of the same molecule?
**A.** > 100 µM (inactive)

**Q.** And the GI50 (CCRF-CEM)?
**A.** 8.07 µM (inactive)

**Q.** And the GI50 (MOLT-4)?
**A.** 1 µM (active)

**Q.** What about the GI50 (HCT-116) of the same molecule?
**A.** 44.5 µM (inactive)

**Q.** And the GI50 (SNB-19)?
**A.** > 100 µM (inactive)

**Q.** What about the GI50 (A498) of the same molecule?
**A.** > 100 µM (inactive)

**Q.** What about the GI50 (HCT-15) of the same molecule?
**A.** 40.4 µM

**Q.** And the GI50 (IGROV-1)?
**A.** 49.7 µM (inactive)

**Q.** And the GI50 (K562)?
**A.** 35.2 µM (inactive)

**Q.** And the GI50 (HL-60)?
**A.** 14.3 µM (inactive)

**Q.** What about the GI50 (UO-31) of the same molecule?
**A.** 19.4 µM (inactive)

**Q.** What about the GI50 (NCI/ADR-RES) of the same molecule?
**A.** > 100 µM (inactive)

**Q.** And the GI50 (M14)?
**A.** 21.6 µM (inactive)

**Q.** What about the GI50 (SK-MEL-28) of the same molecule?
**A.** 76.7 µM (inactive)

**Q.** And the GI50 (RXF 393)?
**A.** 26.1 µM (inactive)

**Q.** What about the GI50 (SNB-75) of the same molecule?
**A.** > 100 µM (inactive)

**Q.** What about the GI50 (OVCAR-4) of the same molecule?
**A.** 30.3 µM (inactive)

**Q.** What about the GI50 (HT-29) of the same molecule?
**A.** 82 µM (inactive)

**Q.** What about the GI50 (SK-OV-3) of the same molecule?
**A.** > 100 µM (inactive)

**Q.** What about the GI50 (SN12C) of the same molecule?
**A.** > 100 µM (inactive)

**Q.** How did the GI50 (MDA-MB-435) turn out when `CCC(CON(C)c1ccccc1)(SC)SC` was run?
**A.** > 100 µM (inactive)

**Q.** And the GI50 (BT-549)?
**A.** > 100 µM (inactive)

**Q.** And the GI50 (NCI-H23)?
**A.** > 100 µM (inactive)

**Q.** And the GI50 (RPMI-8226)?
**A.** > 100 µM (inactive)

**Q.** And the GI50 (MCF7)?
**A.** > 100 µM (inactive)

**Q.** What about the GI50 (Malme-3M) of the same molecule?
**A.** 13.5 µM (inactive)

**Q.** And the GI50 (SF-295)?
**A.** > 100 µM (inactive)

**Q.** And the GI50 (PC-3)?
**A.** > 100 µM (inactive)

**Q.** What about the GI50 (TK-10) of the same molecule?
**A.** > 100 µM (inactive)

**Q.** What about the GI50 (NCI-H522) of the same molecule?
**A.** > 100 µM (inactive)

**Q.** And the GI50 (A549)?
**A.** > 100 µM (inactive)

**Q.** What about the GI50 (KM12) of the same molecule?
**A.** > 100 µM (inactive)

**Q.** What about the GI50 (LOX IMVI) of the same molecule?
**A.** > 100 µM (inactive)

**Q.** And the GI50 (SK-MEL-5)?
**A.** > 100 µM (inactive)

**Q.** What about the GI50 (UACC-257) of the same molecule?
**A.** > 100 µM (inactive)

**Q.** And the GI50 (HOP-62)?
**A.** > 100 µM (inactive)

**Q.** And the GI50 (ACHN)?
**A.** > 100 µM (inactive)

**Q.** And the GI50 (NCI-H460)?
**A.** > 100 µM (inactive)

**Q.** And the GI50 (EKVX)?
**A.** > 100 µM (inactive)

**Q.** And the GI50 (SF-539)?
**A.** > 100 µM (inactive)

**Q.** And the GI50 (CAKI-1)?
**A.** > 100 µM (inactive)

**Q.** And the GI50 (T47D)?
**A.** 13.3 µM (inactive)

**Q.** And the GI50 (SK-MEL-2)?
**A.** 28.7 µM (inactive)

**Q.** And the GI50 (OVCAR-5)?
**A.** > 100 µM (inactive)

**Q.** And the GI50 (U-251)?
**A.** > 100 µM (inactive)

**Q.** And the GI50 (Hs-578T)?
**A.** 80.2 µM (inactive)

**Q.** And the GI50 (OVCAR-8)?
**A.** > 100 µM (inactive)

**Q.** What about the GI50 (786-0) of the same molecule?
**A.** > 100 µM (inactive)

**Q.** What about the GI50 (SW-620) of the same molecule?
**A.** > 100 µM (inactive)

**Q.** What about the GI50 (HOP-92) of the same molecule?
**A.** > 100 µM (inactive)

**Q.** And the GI50 (SR)?
**A.** > 100 µM (inactive)

**Q.** What about the GI50 (DU-145) of the same molecule?
**A.** 82.6 µM (inactive)

**Q.** And the GI50 (UACC-62)?
**A.** > 100 µM (inactive)

**Q.** What about the GI50 (COLO 205) of the same molecule?
**A.** > 100 µM (inactive)

**Q.** What about the GI50 (HCC 2998) of the same molecule?
**A.** > 100 µM (inactive)

**Q.** And the GI50 (MDA-MB-231)?
**A.** > 100 µM (inactive)

**Q.** And the GI50 (NCI-H226)?
**A.** > 100 µM (inactive)

**Q.** And the GI50 (MDA-N)?
**A.** > 100 µM (inactive)

**Q.** What about the GI50 (SF-268) of the same molecule?
**A.** > 100 µM (inactive)

**Q.** And the GI50 (CCRF-CEM)?
**A.** > 100 µM (inactive)

**Q.** And the GI50 (MOLT-4)?
**A.** > 100 µM (inactive)

**Q.** What about the GI50 (HCT-116) of the same molecule?
**A.** > 100 µM (inactive)

**Q.** And the GI50 (SNB-19)?
**A.** > 100 µM (inactive)

**Q.** What about the GI50 (HCT-15) of the same molecule?
**A.** > 100 µM

**Q.** What about the GI50 (IGROV-1) of the same molecule?
**A.** > 100 µM (inactive)

**Q.** What about the GI50 (HL-60) of the same molecule?
**A.** 99.1 µM (inactive)

**Q.** What about the GI50 (UO-31) of the same molecule?
**A.** 95.1 µM (inactive)

**Q.** And the GI50 (NCI/ADR-RES)?
**A.** > 100 µM (inactive)

**Q.** What about the GI50 (M14) of the same molecule?
**A.** > 100 µM (inactive)

**Q.** And the GI50 (SK-MEL-28)?
**A.** > 100 µM (inactive)

**Q.** What about the GI50 (SNB-75) of the same molecule?
**A.** > 100 µM (inactive)

**Q.** And the GI50 (OVCAR-4)?
**A.** > 100 µM (inactive)

**Q.** What about the GI50 (HT-29) of the same molecule?
**A.** > 100 µM (inactive)

**Q.** What about the GI50 (SK-OV-3) of the same molecule?
**A.** > 100 µM (inactive)

**Q.** And the GI50 (SN12C)?
**A.** > 100 µM (inactive)
